Data set [1] is described as follows: Metabolic stability evaluation in human liver microsomes. It counts as in vitro ADME. The note with it: pH 7.4, human liver microsomes 0.5 mg/mL, compound 1 μM, NADPH, 37° C.; for microsomal CLint at 1 μM: read-out: CLint, experiment in human liver microsomes; for half-life at 1 μM: read-out: t1/2, experiment in human liver microsomes. On the procedure:
(§1) Experiments in microsomes: Human liver microsomes: 0.5 mg/mL, Xenotech; Rat liver microsomes: 0.5 mg/mL, Xenotech; Coenzyme (NADPH/NADH): 1 mM, Sigma Life Science; Magnesium chloride: 5 mM, 100 mM phosphate buffer (pH 7.4).
(§2) Preparation of stock solution: A certain amount of powder of the example compounds was accurately weighed and dissolved in DMSO to 5 mM respectively.
(§3) Preparation of phosphate buffer (100 mM, pH7.4): A pre-formulated 150 mL potassium dihydrogen phosphate (0.5 M) was mixed with 700 mL of dibasic potassium phosphate (0.5M). The pH of the mixture was adjusted to 7.4 with 0.5 M dibasic potassium phosphate solution. The mixture was diluted 5-fold with ultrapure water before use, and magnesium chloride was added to obtain the phosphate buffer (100 mM) containing 100 mM potassium phosphate, 3.3 mM magnesium chloride, pH 7.4.
(§4) A NADPH regeneration system solution (containing 6.5 mM NADP, 16.5 mM G-6-P, 3 U/mL G-6-P D, 3.3 mM magnesium chloride) was prepared and placed on wet ice before use.
(§5) Preparation of stop solution: acetonitrile solution containing 50 ng/mL propranolol hydrochloride and 200 ng/mL tolbutamide (internal standard). 25057.5 μL of phosphate buffer (pH 7.4) was taken into a 50 mL centrifuge tube, to which 812.5 μL human liver microsomes were added, respectively, and mixed to obtain a liver microsome dilution solution with a protein concentration of 0.625 mg/mL. 25057.5 μL of phosphate buffer (pH 7.4) was taken into a 50 mL centrifuge tube, to which 812.5 μL SD rat liver microsomes were added, respectively, and mixed to obtain a liver microsome dilution solution with a protein concentration of 0.625 mg/mL.
(§6) Incubation of the samples: The stock solution of the respective compounds was respectively diluted to 0.25 mM with an aqueous solution containing 70% acetonitrile, which were used as working solutions, ready for use. 398 μL of the dilution solution of human liver microsomes or rat liver microsomes were added to a 96-well incubation plate (N=2), respectively, and 2 μL of 0.25 mM working solution was added and mixed.
(§7) Metabolic stability assay: 300 μL of pre-chilled stop solution was added to each well of a 96-well deep well plate and placed on ice as the stop plate. The 96 well incubation plate and NADPH regeneration system were placed in a 37° C. water bath box, shaken at 100 rpm and pre-incubated for 5 min. 80 μL of incubation solution was taken out from each well of the incubation plate and added to the stop plate, mixed, and replenished with 20 μL of NADPH regeneration system solution as a 0-min sample. 80 μL of NADPH regeneration system solution was added to each well of the incubation plate to start the reaction and counting was started. […] 100 μL of the reaction solution was taken at 10, 30, and 90 min after reaction, respectively, added to the stop plate, and vortexed for 3 minutes to terminate the reaction. The stop plate was centrifuged for 4 min at 5000× g at 4° C. 100 μL of the supernatant was added to a 96-well plate to which 100 μL of distilled water was previously added, mixed, and analyzed by LC-MS/MS.
(§8) Data analysis: The peak areas of the corresponding compounds and internal standard were detected by LC-MS/MS system, and the ratio of the peak area of the compounds to the internal standard was calculated.
(§9) The metabolic stability in human and rat liver microsomes was evaluated by simultaneously testing and comparing the compounds disclosed herein and the non-deuterated compound. The non-deuterated compound Ixazomib was used as a control in the table.

A short description of data set [2]: Metabolic stability evaluation in rat liver microsomes. It counts as in vitro ADME. The note with it: SD, pH 7.4, rat liver microsomes 0.5 mg/mL, compound 1 μM, NADPH, 37° C.; for microsomal CLint at 1 μM: read-out: CLint, experiment in rat liver microsomes; for half-life at 1 μM: read-out: t1/2, experiment in rat liver microsomes. On the procedure: as §1, §2, §3, §4, §5, §6, §7, §8, §9

For `[2H]C([2H])(C(C)C)[C@]([2H])(NC(=O)CNC(=O)c1cc(Cl)ccc1Cl)B(O)O` [Compound I-5, (R)-(1-(2-(2,5-dichlorobenzamido)acetamido)-1-d-2,2-d2-3-methylbutyl)boronic Acid], in data set [1], the microsomal CLint at 1 μM was found to be 47.3 µL/min/mg and the half-life at 1 μM is 29.3 min. Moreover, in data set [2], the microsomal CLint at 1 μM turned out to be 97.8 µL/min/mg and the half-life at 1 μM is 14.2 min.

In the case of `CC(C)C[C@H](NC(=O)CNC(=O)c1cc(Cl)ccc1Cl)B(O)O` [Ixazomib, reference compound], in data set [1], the microsomal CLint at 1 μM is 49.4 µL/min/mg and the half-life at 1 μM was 28.1 min. In data set [2], the microsomal CLint at 1 μM stood at 97.3 µL/min/mg and the half-life at 1 μM amounted to 14.3 min.

Turning to `[2H]C([2H])(NC(=O)c1cc(Cl)ccc1Cl)C(=O)N[C@@]([2H])(CC(C)C)B(O)O` [Compound I-4, (R)-(1-(2-(2,5-dichlorobenzamido)-2,2-d2-acetamido)-1-d-3-methylbutyl)boronic Acid], the microsomal CLint at 1 μM came to 48.3 µL/min/mg in data set [1] and 90 µL/min/mg in data set [2]. The values for the half-life at 1 μM in data set [1] and in data set [2] were 28.7 min and 15.4 min, respectively.

With `[2H]C([2H])(NC(=O)c1cc(Cl)ccc1Cl)C(=O)N[C@@H](CC(C)C)B(O)O` [Compound I-1, (R)-(1-(2-(2,5-dichlorobenzamido)-2,2-d2-acetamido)-3-methylbutyl)boronic acid], in data set [2], the microsomal CLint at 1 μM was determined as 81.3 µL/min/mg and the half-life at 1 μM stood at 17.1 min.

For `[2H][C@@](CC(C)C)(NC(=O)CNC(=O)c1cc(Cl)ccc1Cl)B(O)O` [Compound I-2, (R)-(1-(2-(2,5-dichlorobenzamido)acetamido)-1-d-3-methylbutyl)boronic Acid], in data set [1], the microsomal CLint at 1 μM amounted to 46.5 µL/min/mg and the half-life at 1 μM is 29.8 min. Moreover, in data set [2], the microsomal CLint at 1 μM worked out at 90.5 µL/min/mg and the half-life at 1 μM is 15.3 min.

Consider `[2H]C([2H])(C(C)C)[C@H](NC(=O)CNC(=O)c1cc(Cl)ccc1Cl)B(O)O` [Compound I-3, (R)-(1-(2-(2,5-dichlorobenzamido)acetamido)-2,2-d2-3-methylbutyl)boronic Acid], for which, in data set [1], the microsomal CLint at 1 μM was found to be 47.3 µL/min/mg and the half-life at 1 μM worked out at 29.3 min.
